Consider six molecules from paper PMC9202051 (ACS Omega, 2022).

Data set [1] addresses T1, soybean 15-LOX (Glycine max, UniProt P08170).
T1 sequence (P08170 1-839): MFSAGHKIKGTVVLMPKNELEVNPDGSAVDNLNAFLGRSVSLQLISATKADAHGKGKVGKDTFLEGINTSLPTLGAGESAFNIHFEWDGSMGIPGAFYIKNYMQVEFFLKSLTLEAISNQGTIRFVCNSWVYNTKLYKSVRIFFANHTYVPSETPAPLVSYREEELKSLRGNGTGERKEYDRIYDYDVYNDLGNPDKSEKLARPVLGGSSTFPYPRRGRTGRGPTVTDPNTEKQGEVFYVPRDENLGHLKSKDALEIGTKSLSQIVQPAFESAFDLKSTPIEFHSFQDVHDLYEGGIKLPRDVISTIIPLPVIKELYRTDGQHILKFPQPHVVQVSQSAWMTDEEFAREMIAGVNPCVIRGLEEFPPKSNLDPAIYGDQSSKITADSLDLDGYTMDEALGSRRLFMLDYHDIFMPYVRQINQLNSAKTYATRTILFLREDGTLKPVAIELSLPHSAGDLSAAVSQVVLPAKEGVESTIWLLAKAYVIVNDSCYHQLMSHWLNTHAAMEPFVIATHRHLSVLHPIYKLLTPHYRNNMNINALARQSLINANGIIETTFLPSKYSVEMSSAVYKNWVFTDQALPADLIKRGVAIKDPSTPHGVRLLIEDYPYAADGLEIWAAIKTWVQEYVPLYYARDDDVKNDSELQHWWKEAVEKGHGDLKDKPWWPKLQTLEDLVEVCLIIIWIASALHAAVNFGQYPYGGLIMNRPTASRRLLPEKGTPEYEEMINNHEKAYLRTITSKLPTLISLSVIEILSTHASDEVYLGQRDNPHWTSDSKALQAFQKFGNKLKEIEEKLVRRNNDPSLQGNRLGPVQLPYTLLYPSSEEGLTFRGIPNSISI
The experiment in a line: soybean 15-LOX inhibition assay. It counts as biochemical. Particulars: for inhibition at 250 µM: read-out: inhibition (%) at 0.25 mM.

Data set [2] can be described thus: MTT cell viability assay. It counts as cell-based, human. Particulars: human, blood mononuclear cells (MNCs).
Data set [3] relates to blood mononuclear cells (MNCs). The experiment in a line: MTT cell viability assay. The format is cell-based, human. Particulars: MTT assay, 0.25 mM, mononuclear cells; mean ± SEM, n = 3.

Read-outs that look alike come from different tables or passages of the source.

Consider `O=c1c(O)c(-c2ccc(O)c(O)c2)oc2cc(O)cc(O)c12` [quercetin, reference compound], for which, in data set [1], the inhibition at 250 µM was 92.6 ± 1.24%.

In data set [2], `O=P1(N(CCCl)CCCl)NCCCO1` (stereo not shown) [cyclophosphamide, reference compound] returned a viability at 0.25 mM of 56.5 ± 1.9%.

For the molecule `CCCNC(=O)C(C)Sc1nnc(-c2ccc(Cl)cc2)n1Cc1ccco1` (stereo not shown) [Compound 7b, 2-((5-(4-Chlorophenyl)-4-(furan-2-ylmethyl)-4H-1,2,4-triazol-3-yl)thio)-N-n-propylmethylacetamide], in data set [2], the viability at 0.25 mM turned out to be 90.1 ± 1.1%. In data set [1], the IC50 came out at 26.3 ± 0.62 µM and the inhibition at 250 µM stood at 89.3 ± 1.55%.

As to “2-((5-(4-Chlorophenyl)-4-(furan-2-ylmethyl)-4H-1,2,4-triazol-3-yl)thio)-N-(m-tolyl) Methylacetamide [Compound 7f]”, the “cell viability (%) at 0.25 mM” value in data set [3] is 90.21 ± 1.2%. Moreover, the “inhibition (%) at 0.25 mM” value in data set [1] (0.25 mM, mean ± SEM, n = 3) worked out at 82.13 ± 1.85%. Also, the IC50 in data set [1] (mean ± SEM, n = 3) was 45.4 ± 0.72 µM.

In the case of `COc1cc(/C=C/C(=O)CC(=O)/C=C/c2ccc(O)c(OC)c2)ccc1O` [curcumin, reference compound], the viability at 0.25 mM in data set [2] came to 73.9 ± 1.5%.

The molecule `O=c1cc(-c2ccccc2)oc2cc(O)c(O)c(O)c12` [baicalein, reference compound] returned an IC50 in data set [1] of 2.24 ± 0.13 µM.
